Patent publication US12678413B2, “Compositions containing pterosin compound and derivatives thereof active ingredients for prevention or treatment of degenerative brain diseases” (priority 2017, dated 2026)
Read-outs that look alike come from different tables or passages of the source.

How the values were obtained:
NIH3T3 cells = assay: MTT cytotoxicity assay, normal cell line NIH3T3; format: cell-based; conditions: NIH3T3 mouse embryo fibroblast, 48 hours incubation
Protocol: (§1) The normal cell line NIH3T3 (mouse embryo fibroblast cell-line) and the cancerous cell line B16F10 (mouse melanoma cell-line) were separately grown in 96-well plates and incubated for 48 hours with predetermined concentrations of each of the compounds. After additional incubation with MTT, absorbance at 550 nm was read using a microplate reader. Absorbance is an index accounting for a number of viable cells and was used to calculate cell proliferation rates according to the following formula. All experiments were conducted three times for reproducibility. Cell proliferation rate (%)=OD550(sample)/OD550(control)
(§2) Then, LD50 (Lethal Dose 50) values were calculated on the basis of changes in the cell proliferation rate.

B16F10 cells = assay: MTT cytotoxicity assay, cancerous cell line B16F10; format: cell-based; conditions: B16F10 mouse melanoma, 48 hours incubation
Protocol: as §1, §2

[1] = target: T1, acetylcholinesterase (AChE) (Electrophorus electricus, UniProt O42275); assay: In vitro cholinesterase activity assay (Ellman), AChE; format: biochemical; conditions: for IC50: concentrations up to 125 μM, Mean ± SEM, read-out: IC50 Acetylcholine Esterase Mean ± SEM; for SI: selectivity index (BChE/AChE): ratio of IC50 BChE/AChE
T1 construct: purchased Sigma-Aldrich Co. (St. Louis, MO, USA)
T1 sequence (O42275 24-633): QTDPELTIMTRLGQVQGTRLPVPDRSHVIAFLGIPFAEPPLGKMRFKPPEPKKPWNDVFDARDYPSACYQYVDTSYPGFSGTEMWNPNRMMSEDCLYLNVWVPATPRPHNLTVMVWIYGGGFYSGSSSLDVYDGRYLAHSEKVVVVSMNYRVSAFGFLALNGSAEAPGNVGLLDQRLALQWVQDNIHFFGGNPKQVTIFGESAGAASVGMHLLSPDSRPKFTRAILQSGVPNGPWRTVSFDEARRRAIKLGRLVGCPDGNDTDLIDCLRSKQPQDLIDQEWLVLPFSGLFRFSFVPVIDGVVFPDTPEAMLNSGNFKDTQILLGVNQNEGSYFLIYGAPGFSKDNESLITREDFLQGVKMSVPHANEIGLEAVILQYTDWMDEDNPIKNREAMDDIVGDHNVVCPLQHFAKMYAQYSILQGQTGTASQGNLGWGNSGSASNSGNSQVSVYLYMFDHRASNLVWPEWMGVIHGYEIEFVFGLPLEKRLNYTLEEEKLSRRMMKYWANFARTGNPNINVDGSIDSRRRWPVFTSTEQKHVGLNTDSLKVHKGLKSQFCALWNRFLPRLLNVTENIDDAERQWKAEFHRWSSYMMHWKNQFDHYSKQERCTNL
Protocol: (§3) The reaction started with the addition of 10 μL of DTNB and 10 μL of Ach or Bch.
(§4) Briefly, the basis for this assay is the hydrolysis of acetylthiocholine by acetylcholinesterase, producing thiocholine that reacts with DTNB. […] Degrees of inhibition were calculated according to […] wherein E and S represent enzyme activities in the presence and absence of a test sample, respectively.
(§5) The compounds of Table 1 were evaluated for anti-Alzheimer activity. In this regard, inhibitory activity against AChE (acetylcholinesterase) and BChE (butyrylcholinesterase), which lyse acetylcholine in the central nervous system, was measured according to the Experimental Method to calculate IC(inhibition concentrations)50 values.

[2] = target: T2, butyrylcholinesterase (BChE) (Equus caballus, UniProt P81908); assay: In vitro cholinesterase activity assay (Ellman), BChE; format: biochemical; conditions: concentrations up to 125 μM; Mean ± SEM; read-out: IC50 Butyrylcholine esterase Mean ± SEM
T2 construct: horse serum butyrylcholinesterase (BChE, EC3.1.1.8); purchased Sigma-Aldrich Co. (St. Louis, MO, USA); host or cells: horse serum
T2 sequence (P81908 whole entry): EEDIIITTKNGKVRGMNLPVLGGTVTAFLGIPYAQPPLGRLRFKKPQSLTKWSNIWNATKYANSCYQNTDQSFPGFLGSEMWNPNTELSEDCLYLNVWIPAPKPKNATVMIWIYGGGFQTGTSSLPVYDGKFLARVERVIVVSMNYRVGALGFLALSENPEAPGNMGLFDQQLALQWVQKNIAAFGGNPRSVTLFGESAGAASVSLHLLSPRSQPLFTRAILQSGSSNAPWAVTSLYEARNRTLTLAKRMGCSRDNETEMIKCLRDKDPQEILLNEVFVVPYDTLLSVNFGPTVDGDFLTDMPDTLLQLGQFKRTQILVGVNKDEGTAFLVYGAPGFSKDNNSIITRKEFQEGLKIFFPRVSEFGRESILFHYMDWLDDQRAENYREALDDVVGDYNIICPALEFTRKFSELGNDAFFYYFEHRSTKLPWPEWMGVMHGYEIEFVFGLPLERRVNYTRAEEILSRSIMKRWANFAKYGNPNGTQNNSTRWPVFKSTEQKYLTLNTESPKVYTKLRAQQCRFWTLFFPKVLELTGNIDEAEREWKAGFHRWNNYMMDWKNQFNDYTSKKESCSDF
Protocol: as §3, §4, §5

[3] = target: T3, BACE1 (β-secretase, recombinant human enzyme) (Homo sapiens, UniProt P56817); assay: In vitro BACE1 activity assay (FRET kit); format: biochemical; conditions: compounds in 10% DMSO, concentrations up to 125 μM
T3 construct: purchased Pan Vera Co. (Madison, WI, USA)
T3 sequence (P56817 46-501): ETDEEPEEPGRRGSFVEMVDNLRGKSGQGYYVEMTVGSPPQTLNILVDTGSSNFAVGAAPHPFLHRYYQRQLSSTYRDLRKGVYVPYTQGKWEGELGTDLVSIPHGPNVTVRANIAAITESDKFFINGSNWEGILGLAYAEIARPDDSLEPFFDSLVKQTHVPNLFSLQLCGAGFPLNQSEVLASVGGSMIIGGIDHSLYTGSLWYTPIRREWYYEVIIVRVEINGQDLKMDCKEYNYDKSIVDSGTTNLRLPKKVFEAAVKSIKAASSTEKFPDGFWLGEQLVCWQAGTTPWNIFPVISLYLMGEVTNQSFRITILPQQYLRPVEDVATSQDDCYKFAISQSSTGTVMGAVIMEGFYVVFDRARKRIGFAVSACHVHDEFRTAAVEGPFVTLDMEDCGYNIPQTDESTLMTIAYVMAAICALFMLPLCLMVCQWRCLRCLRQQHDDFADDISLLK
Source text: BACE1 (beta-secretase) FRET assay kit was purchased from Pan Vera Co. (Madison, WI, USA). All the chemicals and solvents used in column chromatography were of reagent grade and were used as received without further purification.
A BACE1 fluorescence resonance energy transfer (FRET) assay kit (β-secretase, recombinant human enzyme) was purchased from Pan Vera Co. (Madison, WI, USA).
BACE1 is an enzyme promotive of the production of β-amyloid, which destroys neurons. In order to examine the effects on the compounds of Table 1 on the activity of BACE1, IC(inhibition concentrations)50 values were determined by measuring BACE1 activity in vitro according to Experimental Methods.

BACE1 = target: T4, BACE1 (Homo sapiens, UniProt P56817); assay: BACE1 enzyme kinetics (Dixon plot and Lineweaver plot); format: biochemical
T4 construct: purchased Pan Vera Co. (Madison, WI, USA)
T4 sequence (P56817 46-501): as above
Protocol: A BACE1 fluorescence resonance energy transfer (FRET) assay kit (β-secretase, recombinant human enzyme) was purchased from Pan Vera Co. (Madison, WI, USA). The assay was carried out according to the manual provided, with a modification made thereto as described by Jung et al. (Jung et al., Biol Pharm Bull, 2010, 33:267-272). Quercetin was used as a positive control.
In addition, an enzyme kinetics experiment was conducted using the Lineweaver plot and Dixon plot (see FIG. 7) in order to examine the BACE1 inhibition mechanism of the novel compound (Compound 2). […] The results of the experiment indicate that the novel compound of the present disclosure is a very potent inhibitor against BACE1.

[4] = target: T1, acetylcholinesterase (AChE); assay: AChE enzyme kinetics (Dixon plot and Lineweaver plot); format: biochemical
Protocol: as §3, §4

[5] = target: T2, butyrylcholinesterase (BChE); assay: BChE enzyme kinetics (Dixon plot and Lineweaver plot); format: biochemical
Protocol: as §3, §4

[6] = listed as 3-[2-(1-acetylcycloproply)-1-propenyl]-5-methyl-2-cyclopenten-1-one

Compound	LD50 Normal cell NIH3T3 (NIH3T3 cells)	LD50 Cancer cell B16F10 (B16F10 cells)	IC50 [1]	IC50 [2]	IC50 [3]	SI: selectivity index (BChE/AChE) [1]	Ki (BACE1)	other results
Cc1cc2c(c(C)c1CCO)C(=O)C(C)(C)[C@@H]2O [Compound 9, (3R)-Pterosin D]	>5,000 μM	>5,000 μM	68.7 ± 3.7 µM	> 125 µM				
COc1ccc2cc3[n+](cc2c1OC)CCc1cc2c(cc1-3)OCO2 [Berberine, reference compound]			0.39 ± 0.01 µM					
Cc1cc2c(c(C)c1CCO[C@@H]1OC(CO)[C@@H](O)[C@H](O)C1O)C(=O)[C@](C)(CO)C2 (stereo partly drawn) [Compound 12, (2S)-pteroside A]	>5,000 μM	>5,000 μM	110 ± 3 µM	19.4 ± 0.22 µM	84.6 ± 6 µM	0.17		
Cc1c(CCO[C@@H]2OC(CO)[C@@H](O)[C@H](O)C2O)c(CO)cc2c1C(=O)[C@@H](C)C2 (stereo partly drawn) [Compound 19, (2S)-pteroside P]	>5,000 μM	>5,000 μM	57.5 ± 3.2 µM	33.2 ± 3 µM	81.3 ± 3.9 µM	0.57		
Cc1cc2c(c(C)c1CCO)C(=O)[C@](C)(CO)C2 [Compound 3, (2S)-pterosin A]	>5,000 μM					1.2		LD50 Cancer cell B16F10 (B16F10 cells; listed as (2S)-Pterosin A): 522 ± 25 µM; LD50 Cancer cell B16F10 (B16F10 cells; listed as pterosin A): 522 ± 25 µM
CC(=O)C1(/C(C)=C\C2=CC(=O)C(C)C2)CC1 (stereo not shown) [Compound 2, 3-[2-(1-Acetylcyclopropyl)-1-propenyl)-5-methyl-2-cyclopenten-1-one]	1,550 μM	688 µM				0.83	19 µM	LD50 Normal cell NIH3T3 (NIH3T3 cells; [6]): 1,550 ± 100 μM; LD50 Cancer cell B16F10 (B16F10 cells; [6]): 688 ± 17 µM; Inhibition type BACE1 (BACE1; [6]): Mixed-type; Inhibition type BACE1 (BACE1; listed as novel compound): mixed type
Cc1cc2c(c(C)c1CCO)C(=O)[C@H](C)[C@H]2O [Compound 7, (2R,3R)-pterosin C]	>5,000 μM	>5,000 μM	23.2 ± 4.6 µM	20.3 ± 0.88 µM		0.89	27.6 µM	Inhibition type BACE1 (BACE1): mixed type; Inhibition type BACE1 (BACE1; listed as (2R,3R)-Pterosin C): Mixed-type; Inhibition type Acetylcholinesterase [4]: noncompetitive type; Ki [4]: 29.6 µM; Inhibition type Acetylcholinesterase ([4]; listed as (2R,3R)-Pterosin C): Noncompetitive; Inhibition type Butyrylcholinesterase [5]: mixed type; Ki [5]: 4.77 µM; Inhibition type Butyrylcholinesterase ([5]; listed as (2R,3R)-Pterosin C): Mixed-type
Cc1cc2c(c(C)c1CCO)C(=O)[C@](C)(COC1O[C@H](CO)[C@@H](O)[C@H](O)[C@H]1O)C2 (stereo partly drawn) [Compound 13, (2S)-pteroside A2]	>5,000 μM	>5,000 μM	39.3 ± 1.9 µM			3.0		
Cc1cc2c(c(C)c1CCO)C(=O)[C@@H](C)[C@@H]2O [Compound 6, (2S,3S)-pterosin C]	>5,000 μM	>5,000 μM						
Cc1cc2c(c(C)c1CCO[C@@H]1OC(CO)[C@@H](O)[C@H](O)C1O)C(=O)[C@H](C)[C@H]2O (stereo partly drawn) [Compound 16, (2R,3R)-pteroside C]	>5,000 μM	>5,000 μM			9.74 ± 1.9 µM	1.4	12.6 µM	Inhibition type BACE1 (BACE1): mixed type; Inhibition type BACE1 (BACE1; listed as (2R,3R)-Pteroside C): Mixed-type
Cc1c(CCO)c(CO)cc2c1C(=O)[C@@H](C)C2 [Compound 10, (2S)-pterosin P]	>5,000 μM	>5,000 μM	17.8 ± 0.62 µM	55.9 ± 5.6 µM		3.1		
Cc1cc2c(c(C)c1CCO[C@@H]1OC(CO)[C@@H](O)[C@H](O)C1O)C(=O)C(C)(C)[C@H]2O (stereo partly drawn) [Compound 17, (3S)-pteroside D]	>5,000 μM	>5,000 μM			10.7 ± 1.5 µM	0.70	16.5 µM	Inhibition type BACE1 (BACE1): mixed type; Inhibition type BACE1 (BACE1; listed as (3S)-Pteroside D): Mixed-type
Cc1cc2c(c(C)c1CCO)C(=O)[C@H](C)C2 [Compound 4, (2R)-pterosin B]		>5,000 μM	16.2 ± 1 µM	48.1 ± 0.59 µM		3.0	38.3 µM	LD50 Normal cell NIH3T3 (NIH3T3 cells; listed as (2,R)-Pterosin B): 3,110 ± 130 μM; LD50 Normal cell NIH3T3 (NIH3T3 cells; listed as pterosin B): 3,110±130 μM; Inhibition type BACE1 (BACE1): noncompetitive type; Inhibition type BACE1 (BACE1; listed as (2R)-Pterosin B): Noncompetitive; Inhibition type Acetylcholinesterase [4]: mixed type; Ki [4]: 12.1 µM; Inhibition type Acetylcholinesterase ([4]; listed as (2R)-Pterosin B): Mixed-type; Inhibition type Butyrylcholinesterase [5]: noncompetitive type; Ki [5]: 53.5 µM; Inhibition type Butyrylcholinesterase ([5]; listed as (2R)-Pterosin B): Noncompetitive
Cc1cc2c(c(C)c1CCO)C(=O)[C@H](C)[C@@H]2O [Compound 5, (2R,3S)-pterosin C]	>5,000 μM	>5,000 μM						
Cc1cc2c(c(C)c1CCO)C(=O)C(C)(C)C2 [Compound 11, pterosin Z]			46.5 ± 3.4 µM	80.1 ± 6.8 µM		1.7		LD50 Normal cell NIH3T3 (NIH3T3 cells; listed as PterosinZ): 553 ± 37 µM; LD50 Normal cell NIH3T3 (NIH3T3 cells; listed as pterosin Z): 553 ± 37 µM; LD50 Cancer cell B16F10 (B16F10 cells; listed as PterosinZ): 618 ± 71 µM; LD50 Cancer cell B16F10 (B16F10 cells; listed as pterosin Z): 618 ± 71 µM
Cc1cc2c(c(C)c1CCO)C(=O)[C@@H](C)[C@H]2O [Compound 8, (2S,3R)-pterosin C]	>5,000 μM	>5,000 μM	12.8 ± 0.79 µM	44.3 ± 1 µM		3.5	33.8 µM	Inhibition type BACE1 (BACE1): noncompetitive type; Inhibition type BACE1 (BACE1; listed as (2S,3R)-Pterosin C): Noncompetitive; Inhibition type Acetylcholinesterase [4]: mixed type; Ki [4]: 16.3 µM; Inhibition type Acetylcholinesterase ([4]; listed as (2S,3R)-Pterosin C): Mixed-type; Inhibition type Butyrylcholinesterase [5]: noncompetitive type; Ki [5]: 29.9 µM; Inhibition type Butyrylcholinesterase ([5]; listed as (2S,3R)-Pterosin C): Noncompetitive
Cc1cc2c(c(C)c1CCO[C@@H]1OC(CO)[C@@H](O)[C@H](O)C1O)C(=O)C(C)(C)C2 (stereo partly shown) [Compound 20, pteroside Z]	>5,000 μM	>5,000 μM	22.4 ± 2.2 µM		60 ± 4.3 µM	0.24		
Cc1cc2c(c(C)c1CCO[C@@H]1OC(CO)[C@@H](O)[C@H](O)C1O)C(=O)[C@@H](C)[C@H]2O (stereo partly drawn) [Compound 15, (2S,3R)-pteroside C]	>5,000 μM	>5,000 μM			28.9 ± 2.2 µM	1.4		
